Experimental data as given in ChEMBL document CHEMBL1201862, “PubChem BioAssay data set” (2004).
The source made the active and inactive calls.

Experiments:
[1] = biological target: T1, Sentrin-specific protease 7 (Homo sapiens, UniProt Q9BQF6); assay type: functional;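 note: Luminescence-based dose-response confirmation of ultra-high-throughput screening hits, measuring inhibition of SENP7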
T1 sequence (Q9BQF6 whole entry): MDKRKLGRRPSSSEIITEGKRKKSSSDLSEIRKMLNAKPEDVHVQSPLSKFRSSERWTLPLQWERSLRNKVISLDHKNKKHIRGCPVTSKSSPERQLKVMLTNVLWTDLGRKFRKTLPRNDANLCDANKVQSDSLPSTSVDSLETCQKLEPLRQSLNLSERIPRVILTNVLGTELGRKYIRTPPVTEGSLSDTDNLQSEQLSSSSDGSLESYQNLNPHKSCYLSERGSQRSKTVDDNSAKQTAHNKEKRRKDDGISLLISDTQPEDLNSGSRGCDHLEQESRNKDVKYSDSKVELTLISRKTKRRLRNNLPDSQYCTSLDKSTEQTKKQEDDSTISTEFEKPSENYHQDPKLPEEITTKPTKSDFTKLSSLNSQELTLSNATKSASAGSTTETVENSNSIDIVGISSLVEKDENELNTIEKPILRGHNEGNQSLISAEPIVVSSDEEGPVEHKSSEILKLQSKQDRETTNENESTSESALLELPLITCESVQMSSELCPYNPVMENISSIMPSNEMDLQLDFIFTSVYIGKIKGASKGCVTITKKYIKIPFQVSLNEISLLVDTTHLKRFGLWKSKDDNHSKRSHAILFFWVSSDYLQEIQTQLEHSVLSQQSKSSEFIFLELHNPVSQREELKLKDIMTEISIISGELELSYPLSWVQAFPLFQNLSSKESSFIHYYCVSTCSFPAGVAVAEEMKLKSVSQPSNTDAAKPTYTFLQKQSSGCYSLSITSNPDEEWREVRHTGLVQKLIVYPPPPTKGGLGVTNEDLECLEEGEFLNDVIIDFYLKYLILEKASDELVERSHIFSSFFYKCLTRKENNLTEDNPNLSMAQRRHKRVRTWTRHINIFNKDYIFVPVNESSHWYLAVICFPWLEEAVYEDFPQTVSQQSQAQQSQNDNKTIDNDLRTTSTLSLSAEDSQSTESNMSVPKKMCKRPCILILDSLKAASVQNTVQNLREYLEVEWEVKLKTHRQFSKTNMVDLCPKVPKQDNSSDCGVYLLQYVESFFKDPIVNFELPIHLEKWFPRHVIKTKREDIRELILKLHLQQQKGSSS

[2] = biological target: T2, Sentrin-specific protease 6 (Homo sapiens, UniProt Q9GZR1); assay type: functional;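 note: Luminescence-based dose-response confirmatory assay of SENP6 inhibition, following up an ultra-high-throughput screen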
T2 sequence (Q9GZR1 whole entry): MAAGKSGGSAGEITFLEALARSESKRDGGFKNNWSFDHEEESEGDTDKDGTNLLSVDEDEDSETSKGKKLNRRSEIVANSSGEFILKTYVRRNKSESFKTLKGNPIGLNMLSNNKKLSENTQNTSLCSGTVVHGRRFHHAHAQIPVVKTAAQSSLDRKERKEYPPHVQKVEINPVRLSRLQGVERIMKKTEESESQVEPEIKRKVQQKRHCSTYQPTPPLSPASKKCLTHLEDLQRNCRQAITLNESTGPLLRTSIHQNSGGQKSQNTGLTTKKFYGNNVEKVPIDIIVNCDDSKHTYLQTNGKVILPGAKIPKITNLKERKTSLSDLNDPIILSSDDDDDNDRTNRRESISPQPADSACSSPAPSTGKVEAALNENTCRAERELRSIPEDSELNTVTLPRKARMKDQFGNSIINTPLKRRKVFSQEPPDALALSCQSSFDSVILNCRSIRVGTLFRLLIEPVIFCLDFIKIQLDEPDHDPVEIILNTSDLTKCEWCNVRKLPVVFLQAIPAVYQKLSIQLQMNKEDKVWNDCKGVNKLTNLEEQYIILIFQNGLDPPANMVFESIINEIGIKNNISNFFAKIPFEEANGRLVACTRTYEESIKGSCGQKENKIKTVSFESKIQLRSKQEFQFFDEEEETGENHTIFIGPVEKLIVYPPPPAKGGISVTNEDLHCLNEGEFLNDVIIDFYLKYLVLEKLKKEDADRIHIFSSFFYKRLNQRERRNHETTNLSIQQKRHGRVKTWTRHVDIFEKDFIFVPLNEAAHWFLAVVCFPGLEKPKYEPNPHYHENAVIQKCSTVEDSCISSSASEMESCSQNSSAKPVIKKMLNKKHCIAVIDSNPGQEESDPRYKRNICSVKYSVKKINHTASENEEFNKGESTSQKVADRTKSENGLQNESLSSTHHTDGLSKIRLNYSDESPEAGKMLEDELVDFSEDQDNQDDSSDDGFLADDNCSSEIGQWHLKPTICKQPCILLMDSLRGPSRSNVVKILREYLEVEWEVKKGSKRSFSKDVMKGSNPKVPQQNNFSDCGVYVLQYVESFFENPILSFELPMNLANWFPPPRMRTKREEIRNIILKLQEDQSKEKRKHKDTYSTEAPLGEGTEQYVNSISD

Caspase-3 = biological target: T3, Caspase-3 (Homo sapiens, UniProt P42574); assay type: functional;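 note: Dose-response selectivity test against caspase-3 for candidate inhibitors of sentrin-specific proteases (SENPs)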
T3 sequence (P42574 whole entry): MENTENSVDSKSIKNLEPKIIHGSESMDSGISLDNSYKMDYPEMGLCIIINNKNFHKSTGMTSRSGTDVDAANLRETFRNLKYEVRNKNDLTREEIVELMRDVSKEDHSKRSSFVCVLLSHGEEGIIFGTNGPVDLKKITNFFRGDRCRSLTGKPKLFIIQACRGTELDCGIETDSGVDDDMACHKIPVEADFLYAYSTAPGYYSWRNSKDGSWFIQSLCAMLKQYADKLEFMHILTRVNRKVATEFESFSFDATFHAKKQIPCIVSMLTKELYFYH

[3] = biological target: T4, Sentrin-specific protease 8 (Homo sapiens, UniProt Q96LD8); assay type: functional;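 note: luminescence read-out of SENP8 inhibition, dose-response confirmation following an ultra-high-throughput screen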
T4 sequence (Q96LD8 whole entry): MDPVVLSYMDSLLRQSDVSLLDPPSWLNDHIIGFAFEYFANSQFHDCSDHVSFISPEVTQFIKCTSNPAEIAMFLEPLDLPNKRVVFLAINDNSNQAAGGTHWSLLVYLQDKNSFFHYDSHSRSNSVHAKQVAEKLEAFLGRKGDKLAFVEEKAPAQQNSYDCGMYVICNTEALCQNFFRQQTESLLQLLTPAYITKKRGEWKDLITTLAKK

[4] = biological target: T5, Serine/threonine-protein phosphatase (Candida dubliniensis (strain CD36 / CBS 7987 / NCPF 3949 / NRRLY-17841) (Yeast), UniProt B9W6M3); assay: blockers of CaCl2-induced CDRE-lacZ signaling – S. cerevisiae, luminescence, secondary, dose response (AID 2388); assay type: functional, cell-based;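 note: yeast reporter cells carrying a calcineurin-responsive lacZ construct stimulated with calcium chloride; luminescent beta-galactosidase reporter signal in whole cells rather than isolated phosphatase activity; potency for inhibition where a drop in reporter signal means calcineurin blockade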
T5 sequence (B9W6M3 whole entry): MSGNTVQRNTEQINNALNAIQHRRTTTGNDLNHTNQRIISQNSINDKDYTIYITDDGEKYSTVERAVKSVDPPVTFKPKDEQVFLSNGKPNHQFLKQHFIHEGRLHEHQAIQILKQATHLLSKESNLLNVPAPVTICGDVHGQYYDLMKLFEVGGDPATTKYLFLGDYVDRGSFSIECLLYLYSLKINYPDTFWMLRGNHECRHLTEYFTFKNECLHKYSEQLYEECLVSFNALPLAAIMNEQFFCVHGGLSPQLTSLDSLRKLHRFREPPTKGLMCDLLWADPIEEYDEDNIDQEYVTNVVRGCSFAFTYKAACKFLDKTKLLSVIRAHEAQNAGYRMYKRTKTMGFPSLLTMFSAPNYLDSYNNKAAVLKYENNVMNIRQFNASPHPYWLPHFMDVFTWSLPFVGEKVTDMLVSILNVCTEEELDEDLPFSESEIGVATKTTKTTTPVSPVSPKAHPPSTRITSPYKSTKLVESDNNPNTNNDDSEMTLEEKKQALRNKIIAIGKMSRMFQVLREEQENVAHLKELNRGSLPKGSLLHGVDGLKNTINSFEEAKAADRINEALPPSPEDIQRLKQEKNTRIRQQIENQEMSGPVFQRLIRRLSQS

[5] = biological target: T6, Microphthalmia-associated transcription factor (Homo sapiens, UniProt O75030); assay: reducers of TRPM1 reporter luminescence, concentration series – cell-based, SK-MEL-5, cherry-picked, set 3, MITF inhibitor project, dose response (AID 493073); assay type: functional;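 note: SK-MEL-5 melanoma cells with luciferase driven by the MITF target TRPM1 promoter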
T6 sequence (O75030 whole entry): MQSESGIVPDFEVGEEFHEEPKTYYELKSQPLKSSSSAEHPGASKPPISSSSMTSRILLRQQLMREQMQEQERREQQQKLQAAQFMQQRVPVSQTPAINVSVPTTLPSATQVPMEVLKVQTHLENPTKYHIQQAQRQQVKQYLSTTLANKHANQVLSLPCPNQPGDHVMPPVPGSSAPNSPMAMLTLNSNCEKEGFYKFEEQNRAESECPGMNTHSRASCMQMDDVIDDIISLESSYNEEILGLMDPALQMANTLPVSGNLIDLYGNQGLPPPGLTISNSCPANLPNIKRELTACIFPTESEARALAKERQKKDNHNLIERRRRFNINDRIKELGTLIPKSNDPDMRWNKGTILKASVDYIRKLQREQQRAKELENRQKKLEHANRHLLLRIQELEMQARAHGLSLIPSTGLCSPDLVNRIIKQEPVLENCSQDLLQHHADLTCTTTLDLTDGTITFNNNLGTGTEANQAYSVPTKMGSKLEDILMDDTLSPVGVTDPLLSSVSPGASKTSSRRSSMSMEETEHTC

[6] = fluconazole-exposed Candida albicans growth modulators – fluorescence, retest, confirmation (AID 2467); assay type: functional, cell-based
[7] = biological target: Photoreceptor-specific nuclear receptor (Homo sapiens, UniProt Q9Y5X4); assay type: functional, cell-based;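 note: CHO-S cells with Gal4-NCOR and VP16-NR2E3 two-hybrid luciferase reporter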
Photoreceptor-specific nuclear receptor, sequence (Q9Y5X4 whole entry, the tested form may be a part): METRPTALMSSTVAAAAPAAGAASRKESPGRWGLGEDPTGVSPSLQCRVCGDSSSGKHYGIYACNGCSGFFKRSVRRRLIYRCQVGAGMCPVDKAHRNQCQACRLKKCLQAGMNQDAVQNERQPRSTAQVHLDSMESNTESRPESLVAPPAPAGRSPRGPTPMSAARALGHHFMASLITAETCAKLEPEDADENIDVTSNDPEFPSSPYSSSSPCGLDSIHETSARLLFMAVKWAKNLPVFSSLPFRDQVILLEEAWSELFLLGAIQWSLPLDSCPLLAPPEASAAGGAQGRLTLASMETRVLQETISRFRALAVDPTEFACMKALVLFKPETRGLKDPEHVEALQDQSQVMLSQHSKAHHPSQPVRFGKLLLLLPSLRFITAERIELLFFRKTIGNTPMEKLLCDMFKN

[8] = reduction of Shn3 3'UTR-driven luciferase in osteoblasts – cell-based, Clone20 osteoblasts, firefly luciferase, cherry-picked, dose response (AID 624132); assay type: functional;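 note: firefly luciferase luminescence from reporter carrying the Shn3 3'UTR in osteoblasts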
[9] = NIH-3T3 fibroblast cytotoxicity, dose response, cytotoxicity control, cell-based, fluorescence, Alamar Blue, secondary assay (AID 2327); assay type: functional;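 note: NIH-3T3 mouse fibroblasts cultured with fluconazole at 8 µg/mL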
A-375 = assay: MITF: Counter assay: A375 proliferation Measured in Cell-Based System Using Plate Reader - 2084-03_Inhibitor_Dose_DryPowder_Activity. [Related pubchem assays (depositor defined):AID488944]; assay type: functional; conditions: Homo sapiens
[10] = non-specific 3'UTR reporter inhibition in Clone20-Shn3RL – cell-based, Renilla luciferase, cherry-picked, counter-screen for Shn3 inhibitor project, dose response (AID 624133); assay type: functional
[11] = NIH3T3 cell viability loss – ATP luminescence, mouse fibroblasts, counter-screen, dose response (AID 2010); assay type: functional, cell-based;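 note: cells exposed to compound for about 90 hours before reading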
[12] = loss of viability in HepG2 cells – cell-based, CellTiter-Glo, cherry-picked, cytotoxicity control for Shn3 inhibitor project, dose response (AID 624134); assay type: functional
INS1 = assay: INS-1E survival protection against cytokine death – cell-based, luminescence, retest, dose response (AID 449756); assay type: functional; conditions: Rattus norvegicus;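 note: cell death triggered by IL-1 beta plus TNF-alpha plus IFN-gamma mixture; protective hits raise ATP signal compared with cytokine alone wells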
[13] = biological target: T7, Heat shock factor protein 1 (Mus musculus, UniProt P38532); assay: decrease of HSF1-responsive luciferase luminescence – cell-based, NIH3T3, dose retest, confirmation (AID 2382); assay type: functional;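 note: NIH3T3 fibroblasts with HSF1-driven luciferase reporter stressed by proteasome inhibitor MG132; luminescence from HSF1-driven luciferase expression after 8 hours of MG132 stress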
T7 sequence (P38532 whole entry): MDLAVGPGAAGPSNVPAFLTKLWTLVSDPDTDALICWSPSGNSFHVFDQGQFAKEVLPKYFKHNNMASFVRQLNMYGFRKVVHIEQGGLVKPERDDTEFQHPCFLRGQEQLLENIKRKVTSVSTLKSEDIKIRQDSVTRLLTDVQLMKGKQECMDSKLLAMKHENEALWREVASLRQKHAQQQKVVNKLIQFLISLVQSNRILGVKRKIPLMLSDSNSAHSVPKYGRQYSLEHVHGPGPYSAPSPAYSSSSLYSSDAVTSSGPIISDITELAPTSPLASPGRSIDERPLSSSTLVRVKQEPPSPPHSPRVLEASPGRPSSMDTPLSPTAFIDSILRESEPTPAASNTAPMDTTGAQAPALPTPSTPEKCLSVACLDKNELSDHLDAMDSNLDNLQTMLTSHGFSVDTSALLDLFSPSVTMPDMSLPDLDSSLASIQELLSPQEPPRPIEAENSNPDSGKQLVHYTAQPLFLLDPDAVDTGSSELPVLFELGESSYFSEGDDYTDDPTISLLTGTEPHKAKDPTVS

Nonstructural protein 1 = Nonstructural protein 1 (Influenza A virus, UniProt Q194T2); assay type: functional, Influenza A virus (A/California/07/2009(H1N1))
Nonstructural protein 1, sequence (Q194T2 whole entry): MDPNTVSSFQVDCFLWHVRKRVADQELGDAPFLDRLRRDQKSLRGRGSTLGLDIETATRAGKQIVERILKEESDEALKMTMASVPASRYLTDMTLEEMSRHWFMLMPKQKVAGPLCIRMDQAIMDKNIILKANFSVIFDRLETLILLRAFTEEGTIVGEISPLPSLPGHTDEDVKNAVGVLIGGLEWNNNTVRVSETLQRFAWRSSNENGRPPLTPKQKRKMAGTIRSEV

[14] = biological target: ATP-dependent molecular chaperone HSP82 (Candida albicans (strain WO-1) (Yeast), UniProt C4YTQ8); assay: steroid-induced GRE reporter decrease in yeast – S. cerevisiae, luminescence, Hsp90 inhibitor project, dose response (AID 2400); assay type: functional, cell-based;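 note: beta-galactosidase luminescence from glucocorticoid response element reporter as proxy for Hsp90 function; inhibitor potency where signal loss means Hsp90 inhibition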
ATP-dependent molecular chaperone HSP82, sequence (C4YTQ8 whole entry): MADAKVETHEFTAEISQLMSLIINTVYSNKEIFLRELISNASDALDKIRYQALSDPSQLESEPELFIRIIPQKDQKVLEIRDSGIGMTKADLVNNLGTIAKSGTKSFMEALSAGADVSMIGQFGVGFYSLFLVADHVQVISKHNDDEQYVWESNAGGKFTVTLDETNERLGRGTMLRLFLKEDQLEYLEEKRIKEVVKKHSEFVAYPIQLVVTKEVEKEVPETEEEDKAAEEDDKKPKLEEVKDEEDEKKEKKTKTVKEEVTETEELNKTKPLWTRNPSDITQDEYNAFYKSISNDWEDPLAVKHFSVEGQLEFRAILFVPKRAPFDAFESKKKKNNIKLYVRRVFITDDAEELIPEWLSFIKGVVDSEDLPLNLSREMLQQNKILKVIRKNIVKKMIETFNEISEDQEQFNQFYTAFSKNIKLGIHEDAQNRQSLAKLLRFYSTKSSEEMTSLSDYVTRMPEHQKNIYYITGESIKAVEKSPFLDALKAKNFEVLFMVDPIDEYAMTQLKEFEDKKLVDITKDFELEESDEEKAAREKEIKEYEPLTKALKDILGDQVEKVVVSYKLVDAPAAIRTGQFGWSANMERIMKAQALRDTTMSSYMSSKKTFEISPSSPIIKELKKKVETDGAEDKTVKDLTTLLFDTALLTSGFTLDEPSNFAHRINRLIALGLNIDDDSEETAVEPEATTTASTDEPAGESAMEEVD

[15] = Trypanosoma cruzi growth suppression in host cells – NIH3T3 host cells, beta-gal luminescence, confirmation (AID 2044); assay type: functional, cell-based;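 note: intracellular parasites grown in NIH/3T3 mouse fibroblasts as host cells; luminescent beta-galactosidase reporter signal from transgenic T. cruzi replicating inside host cells; inhibitors lower the luminescence signal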
cells [16] = assay type: functional, cell-based
cells [17] = assay type: functional, cell-based; remark: listed apart in the source
[18] = HEK-293T viability loss after treatment – luminescence, T-cell screen hits, cytotoxicity control for TCR NF-kB inhibitor project, dose response (AID 489026); assay type: functional, cell-based;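 note: cells exposed to compound about 14 hours before the viability readout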
[19] = biological target: Heat shock protein HSP 90-alpha (Homo sapiens, UniProt P07900); assay type: functional, organism-based

CSc1ncccc1C(=O)OCc1ccccc1
active: IC50 [1] 9.53 µM | IC50 [2] 31.8 µM | IC50 (Caspase-3) 21.3 µM | IC50 [3] 43.6 µM

O=[N+]([O-])c1cc(CN2CCN(c3ccccc3)CC2)c(O)c2ncccc12
inactive: EC50 [4] > 180 µM | IC50 [7] 13.9 µM
active: AC50 [5] 8.3 µM | EC50 [6] 0.201 µM | AC50 [8] 1.99 µM | AC50 (A-375) 49.4 µM | AC50 [10] 2.28 µM | EC50 [11] 0.809 µM | AC50 [12] 3.74 µM | AC50 (INS1) 1.17 µM | IC50 (Nonstructural protein 1) 3.42 µM | EC50 [14] 18 µM | EC50 [15] 0.295 µM
inconclusive: EC50 [9] 23 µM
> 195 µM (not active): EC50 [13]

O=C(N/N=C/c1c(O)ccc2ccccc12)c1cccc(C(F)(F)F)c1
> 350 µM (not active): EC50 (cells [16])
active: EC50 (cells [17]) 8.23 µM | EC50 [6] 0.452 µM | EC50 [9] 26.9 µM | EC50 [11] 6.11 µM | AC50 [19] 2.24 µM | EC50 [14] 9.34 µM | EC50 [15] 0.686 µM
inactive: EC50 [4] > 180 µM | IC50 [18] > 80 µM
